Assay results taken from PubChem BioAssay (NCI).
Values joined by “and” are separate entries in the source; they are usually repeats but may differ in a detail not shown here. Identical values can stand only once.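 Values below derive from 48-hour exposures of cells grown in 96-well plates, with endpoints linearly interpolated between the two concentrations bracketing the appropriate inhibition level. At the GI50, growth is halved. TGI: total growth inhibition.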

Columns and labels:
Assay in all cases: DTP human tumour cell line panel, 48 h
OVCAR-8 ovarian = system: OVCAR-8 ovarian
A498 renal = system: A498 renal
786-0 renal = system: 786-0 renal
HCC-2998 colon = system: HCC-2998 colon
NCI-H522 lung = system: NCI-H522 lung
SF-268 CNS = system: SF-268 CNS
IGROV1 ovarian = system: IGROV1 ovarian
M14 melanoma = system: M14 melanoma
SN12C renal = system: SN12C renal
K-562 leukemia = system: K-562 leukemia

COc1cc(C2CC(c3cc(Cl)c(C)cc3O)=NN2c2ccc(S(N)(=O)=O)cc2)cc(OC)c1OC (stereo not drawn)
GI50 (OVCAR-8 ovarian): 3920 nM
TGI (OVCAR-8 ovarian): 12.9 µM
GI50 (A498 renal): 4.15 µM
TGI (A498 renal): 15.3 µM
GI50 (786-0 renal): 2210 nM
TGI (786-0 renal): 4.29 µM
GI50 (HCC-2998 colon): 1840 nM
TGI (HCC-2998 colon): 3.75 µM
GI50 (NCI-H522 lung): 2450 nM
TGI (NCI-H522 lung): 6.73 µM
GI50 (SF-268 CNS): 4290 nM
TGI (SF-268 CNS): 34.2 µM
GI50 (IGROV1 ovarian): 2230 nM
TGI (IGROV1 ovarian): 5.54 µM
GI50 (M14 melanoma): 2020 nM
TGI (M14 melanoma): 4.29 µM
GI50 (SN12C renal): 2970 nM
TGI (SN12C renal): 10.3 µM
GI50 (K-562 leukemia): 3220 nM
TGI (K-562 leukemia): 30.9 µM

O=C(/C=C/c1ccc(OCCCOc2ccc(/C=C/C(=O)c3ccc(Cl)cc3)cc2)cc1)c1ccc(Cl)cc1
TGI (OVCAR-8 ovarian): > 100 µM
TGI (786-0 renal): > 100 µM
TGI (HCC-2998 colon): > 100 µM
TGI (NCI-H522 lung): > 100 µM
TGI (SF-268 CNS): > 100 µM
TGI (IGROV1 ovarian): > 100 µM
TGI (M14 melanoma): > 100 µM
TGI (SN12C renal): > 100 µM
TGI (K-562 leukemia): > 100 µM

NC(=O)COc1ccc(Br)cc1Br
TGI (OVCAR-8 ovarian): > 100 µM
TGI (A498 renal): > 100 µM
TGI (786-0 renal): > 100 µM
TGI (NCI-H522 lung): > 100 µM
TGI (SF-268 CNS): > 100 µM
TGI (IGROV1 ovarian): > 100 µM
TGI (M14 melanoma): > 100 µM
TGI (SN12C renal): > 100 µM
TGI (K-562 leukemia): > 100 µM

NS(=O)(=O)c1ccc(N=Nc2cc3ccccc3c(C(=O)O)c2O)cc1
TGI (OVCAR-8 ovarian): > 100 µM
TGI (A498 renal): > 86.8 µM
TGI (786-0 renal): > 100 µM
TGI (NCI-H522 lung): > 65.6 µM
TGI (SF-268 CNS): > 85.6 µM
TGI (IGROV1 ovarian): > 100 µM
TGI (M14 melanoma): > 100 µM
TGI (SN12C renal): > 100 µM
TGI (K-562 leukemia): > 100 µM

Cn1ccnc1C(=O)/C=C/c1ccc(CC(=O)Nc2cc(F)c(F)c(F)c2)cc1
GI50 (OVCAR-8 ovarian): 1330 nM
TGI (OVCAR-8 ovarian): > 25 µM
GI50 (A498 renal): 3.58 µM
TGI (A498 renal): 7.65 µM
GI50 (786-0 renal): 2440 nM
TGI (786-0 renal): 5.5 µM
GI50 (HCC-2998 colon): 2550 nM
TGI (HCC-2998 colon): 6.04 µM
GI50 (NCI-H522 lung): 2640 nM
TGI (NCI-H522 lung): 7.72 µM
GI50 (SF-268 CNS): 1780 nM
TGI (SF-268 CNS): 9.57 µM
GI50 (IGROV1 ovarian): 1400 nM
TGI (IGROV1 ovarian): 8.22 µM
GI50 (M14 melanoma): 3680 nM
TGI (M14 melanoma): 8.45 µM
GI50 (SN12C renal): 1400 nM
TGI (SN12C renal): 8.61 µM
GI50 (K-562 leukemia): 808 nM
TGI (K-562 leukemia): > 25 µM

Nc1ccc(Sc2ccc3c4c2cccc4c(=O)n2c4ccccc4nc32)cc1
GI50 (OVCAR-8 ovarian): 5130 nM
TGI (OVCAR-8 ovarian): 30.9 µM
GI50 (A498 renal): 3.67 µM
TGI (A498 renal): 57.9 µM
GI50 (786-0 renal): 3340 nM
TGI (786-0 renal): 10.4 µM
GI50 (HCC-2998 colon): 10100 nM
TGI (HCC-2998 colon): > 100 µM
GI50 (NCI-H522 lung): 3990 nM
TGI (NCI-H522 lung): 36.8 µM
GI50 (SF-268 CNS): 5420 nM
TGI (SF-268 CNS): 80.2 µM
GI50 (IGROV1 ovarian): 3900 nM
TGI (IGROV1 ovarian): 32 µM
GI50 (M14 melanoma): 4510 nM
TGI (M14 melanoma): 27.9 µM
GI50 (SN12C renal): 2610 nM
TGI (SN12C renal): 19.7 µM
GI50 (K-562 leukemia): 4930 nM
TGI (K-562 leukemia): > 100 µM

C/C(=C\COc1ccc2ccc(=O)oc2c1)CCC(=O)C(C)(C)O
TGI (OVCAR-8 ovarian): 76.3 µM
TGI (A498 renal): 64.2 µM
TGI (786-0 renal): 43.3 µM
TGI (HCC-2998 colon): 38.4 µM
TGI (NCI-H522 lung): 43.6 µM
TGI (SF-268 CNS): > 100 µM
TGI (IGROV1 ovarian): > 100 µM
TGI (M14 melanoma): 61.2 µM
TGI (SN12C renal): 58.4 µM
TGI (K-562 leukemia): 46.8 µM

COc1ccc(OC)c(/C=C/C(=O)c2ccc(SC)cc2)c1
GI50 (OVCAR-8 ovarian): 24300 nM
TGI (OVCAR-8 ovarian): 68.7 µM
GI50 (A498 renal): 13.7 µM
TGI (A498 renal): 30.3 µM
GI50 (786-0 renal): 7530 nM
TGI (786-0 renal): 21.6 µM
GI50 (HCC-2998 colon): 4810 nM
TGI (HCC-2998 colon): 17.1 µM
GI50 (NCI-H522 lung): 6910 nM
TGI (NCI-H522 lung): 23.4 µM
GI50 (SF-268 CNS): 2580 nM
TGI (SF-268 CNS): 7.46 µM
GI50 (IGROV1 ovarian): 11000 nM
TGI (IGROV1 ovarian): 27.1 µM
GI50 (M14 melanoma): 12600 nM
TGI (M14 melanoma): 27.1 µM
GI50 (SN12C renal): 17200 nM
TGI (SN12C renal): 33.9 µM
GI50 (K-562 leukemia): 2720 nM
TGI (K-562 leukemia): 7.44 µM

COc1ccc(CN[C@H]2CCc3cc(OC)c(OC)c(OC)c3-c3ccc(SC)c(=O)cc32)c(OC)c1OC
TGI (A498 renal): 0.0804 µM
GI50 (786-0 renal): 28.5 nM
TGI (786-0 renal): > 100 µM
GI50 (HCC-2998 colon): 23.8 nM
TGI (HCC-2998 colon): 0.0413 µM and 0.0657 µM
TGI (NCI-H522 lung): 0.0495 µM
GI50 (SF-268 CNS): 11.1 nM
GI50 (IGROV1 ovarian): 39.5 nM
TGI (IGROV1 ovarian): > 100 µM
GI50 (M14 melanoma): 10.2 nM
TGI (SN12C renal): 59.8 µM
GI50 (K-562 leukemia): < 10 nM
TGI (K-562 leukemia): 1.35 µM

C/C(CC(=O)Nc1cc(Cl)c(Cl)cc1Cl)=N\NS(=O)(=O)c1ccc(C)cc1
TGI (OVCAR-8 ovarian): > 100 µM
TGI (A498 renal): > 100 µM
TGI (786-0 renal): > 100 µM
TGI (HCC-2998 colon): 86.5 µM
TGI (NCI-H522 lung): 41.8 µM
TGI (SF-268 CNS): > 100 µM
TGI (IGROV1 ovarian): > 100 µM
TGI (M14 melanoma): 91.4 µM
TGI (K-562 leukemia): > 100 µM

COc1ccc2c(c1)/C(=N/OC(C)=O)c1c-2c(Nc2ccc(/C(C)=N/OC(C)=O)cc2)nc2ccccc12
GI50 (OVCAR-8 ovarian): 63300 nM
TGI (OVCAR-8 ovarian): > 100 µM
GI50 (A498 renal): > 100 µM
TGI (A498 renal): > 100 µM
GI50 (786-0 renal): > 100000 nM
TGI (786-0 renal): > 100 µM
GI50 (HCC-2998 colon): 26000 nM
TGI (HCC-2998 colon): 59 µM
GI50 (NCI-H522 lung): 73400 nM
TGI (NCI-H522 lung): > 100 µM
GI50 (SF-268 CNS): 37700 nM
TGI (SF-268 CNS): > 100 µM
GI50 (IGROV1 ovarian): 71600 nM
TGI (IGROV1 ovarian): > 100 µM
GI50 (M14 melanoma): 68900 nM
TGI (M14 melanoma): > 100 µM
GI50 (SN12C renal): 69700 nM
TGI (SN12C renal): > 100 µM
GI50 (K-562 leukemia): 40400 nM
TGI (K-562 leukemia): > 100 µM

CN1CCN(Cc2ccc(NC(=O)c3cncc(C#Cc4cncc5[nH]ncc45)c3)cc2C(F)(F)F)CC1
GI50 (OVCAR-8 ovarian): 1500 nM
TGI (OVCAR-8 ovarian): 6.73 µM
GI50 (A498 renal): 0.275 µM
TGI (A498 renal): 1.56 µM
GI50 (786-0 renal): 1800 nM
TGI (786-0 renal): 6.35 µM
GI50 (HCC-2998 colon): 777 nM
TGI (HCC-2998 colon): 5.88 µM
GI50 (NCI-H522 lung): 1160 nM
TGI (NCI-H522 lung): 8 µM
GI50 (SF-268 CNS): 899 nM
TGI (SF-268 CNS): 3.96 µM
GI50 (IGROV1 ovarian): 454 nM
TGI (IGROV1 ovarian): 1.45 µM
GI50 (M14 melanoma): 157 nM
TGI (M14 melanoma): 0.706 µM
GI50 (SN12C renal): 906 nM
TGI (SN12C renal): 5.73 µM
GI50 (K-562 leukemia): 5 nM
TGI (K-562 leukemia): 1.64 µM

O=[N+]([O-])C1(CO)COC2(OC1)c1ccccc1-c1ccccc12
TGI (OVCAR-8 ovarian): > 100 µM
TGI (A498 renal): > 100 µM
TGI (786-0 renal): > 74.8 µM
TGI (HCC-2998 colon): > 100 µM
TGI (NCI-H522 lung): 41 µM
TGI (SF-268 CNS): > 93.2 µM
TGI (IGROV1 ovarian): > 100 µM
TGI (M14 melanoma): > 88.4 µM
TGI (SN12C renal): > 100 µM
TGI (K-562 leukemia): > 87 µM

O=C(Nc1ccc(I)cc1F)c1cc(F)ccc1O
GI50 (OVCAR-8 ovarian): 1070 nM
TGI (OVCAR-8 ovarian): 48.7 µM
GI50 (A498 renal): 0.163 µM
TGI (A498 renal): 0.634 µM
GI50 (786-0 renal): 2190 nM
TGI (786-0 renal): 6.67 µM
GI50 (HCC-2998 colon): 3100 nM
TGI (HCC-2998 colon): 26.4 µM
GI50 (NCI-H522 lung): 304 nM
GI50 (SF-268 CNS): 513 nM
TGI (SF-268 CNS): > 31.1 µM
GI50 (IGROV1 ovarian): 404 nM
TGI (IGROV1 ovarian): > 100 µM
GI50 (M14 melanoma): 407 nM
TGI (M14 melanoma): 3.26 µM
GI50 (SN12C renal): 354 nM
TGI (SN12C renal): 3.77 µM
GI50 (K-562 leukemia): 407 nM
TGI (K-562 leukemia): > 42.1 µM

c1ccc(-c2nn(-c3ccccc3)[n+](-c3ccccc3-c3ccccc3)n2)cc1
GI50 (OVCAR-8 ovarian): 757 nM
TGI (OVCAR-8 ovarian): 12.5 µM
GI50 (A498 renal): 1.65 µM
TGI (A498 renal): 9.04 µM
GI50 (786-0 renal): 2960 nM
TGI (786-0 renal): 21.2 µM
GI50 (HCC-2998 colon): 940 nM
TGI (HCC-2998 colon): 17.3 µM
GI50 (NCI-H522 lung): 478 nM
TGI (NCI-H522 lung): 8.18 µM
GI50 (SF-268 CNS): 1710 nM
TGI (SF-268 CNS): > 47.7 µM
GI50 (IGROV1 ovarian): 868 nM
TGI (IGROV1 ovarian): 16.3 µM
GI50 (M14 melanoma): 1630 nM
TGI (M14 melanoma): 16.6 µM
GI50 (SN12C renal): 1820 nM
TGI (SN12C renal): 15.5 µM
GI50 (K-562 leukemia): 456 nM
TGI (K-562 leukemia): 15.3 µM
